# From paper PMC10423218, “Molecular mechanism underlying regulation of Arabidopsis CLCa transporter by nucleotides and phospholipids” (Nature Communications, 2023)
# Residue numbers refer to the chain shown, from its start.
# T1: AtCLCa (Arabidopsis thaliana, UniProt P92941)
# T1 sequence (P92941 1-775): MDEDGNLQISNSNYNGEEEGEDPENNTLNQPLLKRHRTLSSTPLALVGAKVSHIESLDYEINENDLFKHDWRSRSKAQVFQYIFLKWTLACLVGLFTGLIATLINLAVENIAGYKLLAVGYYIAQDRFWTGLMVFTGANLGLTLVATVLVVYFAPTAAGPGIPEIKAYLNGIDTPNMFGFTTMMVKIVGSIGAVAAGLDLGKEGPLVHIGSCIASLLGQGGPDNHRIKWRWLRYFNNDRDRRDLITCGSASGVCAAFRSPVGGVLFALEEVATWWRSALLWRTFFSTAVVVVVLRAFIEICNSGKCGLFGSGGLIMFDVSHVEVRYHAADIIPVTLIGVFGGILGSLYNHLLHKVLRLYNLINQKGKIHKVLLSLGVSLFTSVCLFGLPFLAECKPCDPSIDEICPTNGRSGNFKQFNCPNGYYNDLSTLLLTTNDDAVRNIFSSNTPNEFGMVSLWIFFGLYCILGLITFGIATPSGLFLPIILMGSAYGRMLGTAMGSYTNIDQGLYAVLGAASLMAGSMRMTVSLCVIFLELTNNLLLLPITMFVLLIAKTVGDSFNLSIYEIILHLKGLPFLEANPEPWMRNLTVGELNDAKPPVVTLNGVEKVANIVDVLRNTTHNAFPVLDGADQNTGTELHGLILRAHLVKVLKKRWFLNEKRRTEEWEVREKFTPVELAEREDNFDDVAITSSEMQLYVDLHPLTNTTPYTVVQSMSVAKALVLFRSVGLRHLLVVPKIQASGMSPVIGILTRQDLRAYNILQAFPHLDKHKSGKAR
# T2: AtCLCa (Arabidopsis thaliana, UniProt P92941, E55A/S56A)
# T2 construct: gene CLC-A; full-length, homodimer; structures: Pichia pastoris GS115, C-terminal GFP-6xHis tag cut by TEV, MSP1D1 nanodiscs; patch clamp: pKH3 vector in HEK293T
# T2 sequence (P92941 1-775 E55A/S56A): T1 sequence (P92941 1-775) with E55A, S56A
# T3: AtCLCa ΔN44 mutant (Arabidopsis thaliana, UniProt P92941)
# T3 construct: gene CLC-A; N-terminal 44-residue deletion, beta-hairpin retained, homodimer, pKH3 vector in HEK293T
# T3 sequence (P92941 45-775): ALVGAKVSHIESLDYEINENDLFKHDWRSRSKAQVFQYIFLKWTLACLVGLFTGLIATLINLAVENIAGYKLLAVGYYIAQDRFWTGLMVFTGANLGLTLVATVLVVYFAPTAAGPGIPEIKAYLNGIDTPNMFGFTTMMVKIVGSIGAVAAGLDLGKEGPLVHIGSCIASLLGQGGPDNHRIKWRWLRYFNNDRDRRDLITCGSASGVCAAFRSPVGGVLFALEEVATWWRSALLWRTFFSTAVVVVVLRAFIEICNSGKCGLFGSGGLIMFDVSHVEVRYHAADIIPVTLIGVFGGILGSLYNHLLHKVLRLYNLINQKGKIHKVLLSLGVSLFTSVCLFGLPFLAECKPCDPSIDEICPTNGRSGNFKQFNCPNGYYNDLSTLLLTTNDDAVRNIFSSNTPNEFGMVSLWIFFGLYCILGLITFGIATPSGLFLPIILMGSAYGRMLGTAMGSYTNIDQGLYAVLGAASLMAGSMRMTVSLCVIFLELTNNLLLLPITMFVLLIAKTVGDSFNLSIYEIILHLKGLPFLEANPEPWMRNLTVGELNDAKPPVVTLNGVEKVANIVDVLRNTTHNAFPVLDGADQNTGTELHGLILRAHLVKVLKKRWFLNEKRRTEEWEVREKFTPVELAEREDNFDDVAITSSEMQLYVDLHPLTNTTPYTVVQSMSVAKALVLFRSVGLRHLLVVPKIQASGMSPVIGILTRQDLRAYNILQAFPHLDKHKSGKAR
# T4: AtCLCa (Arabidopsis thaliana, UniProt P92941, D753A)
# T4 construct: gene CLC-A; full-length, homodimer; structures: Pichia pastoris GS115, C-terminal GFP-6xHis tag cut by TEV, MSP1D1 nanodiscs; patch clamp: pKH3 vector in HEK293T
# T4 sequence (P92941 1-775 D753A): T1 sequence (P92941 1-775) with D753A
# T5: AtCLCa ΔN53 mutant (Arabidopsis thaliana, UniProt P92941)
# T5 construct: gene CLC-A; N-terminal deletion ΔN53 (beta-hairpin residues 44-53 removed), homodimer, pKH3 vector in HEK293T
# T5 sequence (P92941 54-775): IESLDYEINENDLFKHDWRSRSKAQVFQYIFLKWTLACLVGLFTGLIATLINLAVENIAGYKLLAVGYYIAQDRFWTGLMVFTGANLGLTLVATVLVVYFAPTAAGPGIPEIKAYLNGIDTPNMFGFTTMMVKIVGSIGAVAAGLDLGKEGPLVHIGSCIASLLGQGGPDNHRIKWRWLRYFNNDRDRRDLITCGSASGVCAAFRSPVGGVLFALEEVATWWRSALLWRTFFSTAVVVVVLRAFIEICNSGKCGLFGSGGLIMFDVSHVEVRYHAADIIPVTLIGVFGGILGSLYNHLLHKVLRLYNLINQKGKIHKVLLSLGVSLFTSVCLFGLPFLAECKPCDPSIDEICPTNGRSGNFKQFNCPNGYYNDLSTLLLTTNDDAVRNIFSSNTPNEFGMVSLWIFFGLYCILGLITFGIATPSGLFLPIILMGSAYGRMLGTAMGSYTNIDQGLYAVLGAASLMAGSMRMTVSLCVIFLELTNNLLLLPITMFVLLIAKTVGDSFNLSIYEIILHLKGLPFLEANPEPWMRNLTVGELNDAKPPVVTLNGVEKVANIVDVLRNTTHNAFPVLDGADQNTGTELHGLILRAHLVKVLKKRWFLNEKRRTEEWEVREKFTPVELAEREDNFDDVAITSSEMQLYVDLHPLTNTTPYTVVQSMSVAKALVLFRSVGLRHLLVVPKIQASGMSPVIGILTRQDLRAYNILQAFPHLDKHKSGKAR
# B1: Arabidopsis thaliana CLCa (AtCLCa) transporter (natural protein, UniProt P92941 1-775, looked up)
# chain: T1 sequence (P92941 1-775)
# notes: Arabidopsis thaliana CLCa, Uniprot P92941, full-length gene; C-terminal GFP-6xHis tag was fused by a short linker with a TEV protease site and cut off with TEV; residues of the linker may be left; also called AtCLCa-Cl-; AtCLCa-NO3-; source: Pichia pastoris GS115, purified (anti-GFP nanobody resin, TEV digestion, SEC), reconstituted into MSP1D1 nanodiscs; not shown: GFP, C-terminal, cleaved; …
# Tests used:
# AtCLCa [1] = molecular target: T1, AtCLCa; assay: whole-cell patch clamp, HEK293T; assay type: cell-based; parameters: gene CLC-A; full-length, homodimer; patch clamp: pKH3 vector in HEK293T; details: 5 mM in pipette (cytosolic side); nitrate bath; pH 7.4
# AtCLCa [2] = molecular target: T1, AtCLCa; assay: whole-cell patch clamp, HEK293T; assay type: cell-based; parameters: gene CLC-A; full-length, homodimer; patch clamp: pKH3 vector in HEK293T; details: pipette (cytosolic side); pH 7.4
# AtCLCa [3] = molecular target: T2, AtCLCa; assay: whole-cell patch clamp, HEK293T; assay type: cell-based; details: 5 mM in pipette (cytosolic side); nitrate bath; pH 7.4
# AtCLCa ΔN44 mutant = molecular target: T3, AtCLCa ΔN44 mutant; assay: whole-cell patch clamp, HEK293T; assay type: cell-based; details: 5 mM in pipette (cytosolic side); nitrate bath; pH 7.4
# AtCLCa [4] = molecular target: T4, AtCLCa; assay: whole-cell patch clamp, HEK293T; assay type: cell-based; details: 5 mM in pipette (cytosolic side); nitrate bath; pH 7.4
# AtCLCa ΔN53 mutant = molecular target: T5, AtCLCa ΔN53 mutant; assay: whole-cell patch clamp, HEK293T; assay type: cell-based; details: 5 mM in pipette (cytosolic side); nitrate bath; pH 7.4
# AtCLCa [5] = molecular target: T1, AtCLCa; assay: whole-cell patch clamp, HEK293T; assay type: cell-based; parameters: gene CLC-A; full-length, homodimer; patch clamp: pKH3 vector in HEK293T; details: 5 mM in pipette (cytosolic side); nitrate bath; pH 7.4; 5 mM MgCl2; room temperature
# AtCLCa [6] = molecular target: T1, AtCLCa; assay: cryo-EM structure, […] Å; assay type: binding; parameters: gene CLC-A; full-length, homodimer; structures: Pichia pastoris GS115, C-terminal GFP-6xHis tag cut by TEV, MSP1D1 nanodiscs; patch clamp: pKH3 vector in HEK293T; details: Scen and Sint sites; 150 mM NaNO3, pH 8.0
# [7] = molecular target: the molecule itself; assay: cryo-EM structure; AtCLCa in MSP1D1 nanodiscs with soybean polar lipid; 20 mM Tris pH 8.0 with 150 mM NaCl (AtCLCa-Cl-) or 150 mM NaNO3 (AtCLCa-NO3-); C2 symmetry applied
molecule,measurement,setting,value
Nc1ncnc2c1ncn2[C@@H]1O[C@H](COP(=O)(O)OP(=O)(O)O)[C@@H](O)[C@H]1O [ADP],inhibition of NO3^- currents at 5 mM,AtCLCa [1],ADP produced a weak inhibition while AMP induced a negligible inhibition
Nc1ncnc2c1ncn2[C@@H]1O[C@H](COP(=O)(O)O)[C@@H](O)[C@H]1O [AMP],inhibition of NO3^- currents at 5 mM,AtCLCa [1],ADP produced a weak inhibition while AMP induced a negligible inhibition
Nc1ncnc2c1ncn2[C@@H]1O[C@H](COP(=O)(O)OP(=O)(O)OP(O)(O)=S)[C@@H](O)[C@H]1O [ATP-γ-S],inhibition of currents,AtCLCa [2],ATP-γ-S induced an inhibition comparable with ATP
Nc1ncnc2c1ncn2[C@@H]1O[C@H](COP(=O)(O)OP(=O)(O)OP(=O)(O)O)[C@@H](O)[C@H]1O [ATP],inhibition of NO3^- currents at 5 mM,AtCLCa [3],(E55A/S56A) can completely abolish the inhibitory effect of ATP
same,inhibition of NO3^- currents at 5 mM,AtCLCa ΔN44 mutant,exhibits similar inhibition pattern to wild-type AtCLCa upon ATP addition
same,inhibition of NO3^- currents at 5 mM,AtCLCa [4],D753A mutant impairs the inhibition of ATP
same,inhibition of NO3^- currents at 5 mM,AtCLCa ΔN53 mutant,the NO3^− currents in ΔN53 mutant are not influenced by the addition of ATP
same,decrease of NO3^- currents at 5 mM,AtCLCa [5],led to a decrease of approximately half of the NO3^− currents induced by wild-type AtCLCa
O=[N+]([O-])O [NO3^−],"cryo-EM structure, 3.2 Å",AtCLCa [6],"Scen and Sint were found of fair densities, which likely corresponds to the bound NO3^−"
B1,stoichiometry N,[7],2
